Source: US20240228488A1 (TAKEDA PHARMACEUTICAL COMPANY LIMITED, priority 2021, published 2024)

Target: human activated kallikrein enzyme (Homo sapiens, UniProt P03952)
Assay: Plasma kallikrein inhibition, fluorogenic PFR-AMC substrate, 500 pM activated kallikrein format
Type: biochemical
Details: 500 pM activated kallikrein, 300 uM PFR-AMC, 30 min preincubation, 10 min reaction; read-out: Primary Dose Response Assay: Average EC50
Outline: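 500 pM enz + cpd, 30 min RT preinc; start w/ PFR-AMC 300 uM; 10 min RT; Ex380/Em460. Buffer: Tris 20 mM pH 7.5, EDTA 1 mM, NaCl 150 mM, PEG-400 0.1%, Triton 0.1%. EC50.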

Chain of human activated kallikrein enzyme (P03952 391-638 limits assumed): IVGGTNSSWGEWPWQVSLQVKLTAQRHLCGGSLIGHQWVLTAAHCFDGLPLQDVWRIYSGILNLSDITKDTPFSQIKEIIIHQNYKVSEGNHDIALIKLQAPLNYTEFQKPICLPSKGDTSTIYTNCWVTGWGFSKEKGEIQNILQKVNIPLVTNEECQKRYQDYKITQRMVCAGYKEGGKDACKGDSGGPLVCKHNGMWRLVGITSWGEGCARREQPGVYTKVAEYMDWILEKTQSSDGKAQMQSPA
Chain of human activated kallikrein enzyme (P03952 20-390 partner limits assumed): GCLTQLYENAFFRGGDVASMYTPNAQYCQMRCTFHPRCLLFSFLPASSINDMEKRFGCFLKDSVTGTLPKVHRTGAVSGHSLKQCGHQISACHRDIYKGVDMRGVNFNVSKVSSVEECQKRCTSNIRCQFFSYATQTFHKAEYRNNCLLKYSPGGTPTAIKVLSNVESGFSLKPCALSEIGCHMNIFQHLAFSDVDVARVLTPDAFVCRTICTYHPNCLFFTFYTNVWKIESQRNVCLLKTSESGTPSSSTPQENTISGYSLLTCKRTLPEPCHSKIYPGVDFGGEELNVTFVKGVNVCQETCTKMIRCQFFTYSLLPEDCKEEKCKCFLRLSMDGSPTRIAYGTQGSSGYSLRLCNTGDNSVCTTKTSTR

EC50 [nM]	SMILES
< 1	Cc1ccnc([C@H]2C[C@@H]2C(=O)Nc2cc(N[C@H](C)c3cn4cc(C5CC5)cc(N5CC(=O)NC5=O)c4n3)ncn2)n1 [Example 533, (1S,2S)-N-(6-(((R)-1-(6-cyclopropyl-8-(2,4-dioxoimidazolidin-1-yl)imidazo[1,2-a]pyridin-2-yl)ethyl)amino)pyrimidin-4-yl)-2-(4-methylpyrimidin-2-yl)cyclopropane-1-carboxamide]
< 1	Cc1ccnc([C@H]2C[C@@H]2C(=O)Nc2cc3c(cn2)nnn3Cc2cn3cc(C4CC4)cc(N4CC(=O)N(C)C4=O)c3n2)n1 [Example I-635, (1S,2S)—N-(1-((6-cyclopropyl-8-(3-methyl-2,4-dioxoimidazolidin-1-yl)imidazo[1,2-a]pyridin-2-yl)methyl)-1H-[1,2,3]triazolo[4,5-c]pyridin-6-yl)-2-(4-methylpyrimidin-2-yl)cyclopropane-1-carboxamide]
< 1	CCc1cc(N2CC(=O)N(C)C2=O)c2nc(CNc3cc(NC(=O)[C@H]4C[C@@H]4c4nccc(C)n4)nc(C)n3)cn2c1 [Example 537, (1S,2S)-N-(6-(((6-ethyl-8-(3-methyl-2,4-dioxoimidazolidin-1-yl)imidazo[1,2-a]pyridin-2-yl)methyl)amino)-2-methylpyrimidin-4-yl)-2-(4-methylpyrimidin-2-yl)cyclopropane-1-carboxamide]
1 to 10	Cc1ccnc([C@H]2C[C@]2(F)C(=O)Nc2cc(N[C@H](C)c3cn4cc(C5CC5)cc(N5CC(=O)N(C)C5=O)c4n3)nc(C)n2)n1 (racemic) [Example 528, rac-(1S*,2S*)-N-(6-(((R)-1-(6-cyclopropyl-8-(3-methyl-2,4-dioxoimidazolidin-1-yl)imidazo[1,2-a]pyridin-2-yl)ethyl)amino)-2-methylpyrimidin-4-yl)-1-fluoro-2-(4-methylpyrimidin-2-yl)cyclopropane-1-carboxamide]
1 to 10	CN1CCN(c2cc(C3CC3)cn3cc(CNc4cncc(NC(=O)[C@H]5C[C@@H]5c5cccc(Cl)c5)n4)nc23)CC1 [Example I-255, (1S,2S)-2-(3-chlorophenyl)-N-(6-(((6-cyclopropyl-8-(4-methylpiperazin-1-yl)imidazo[1,2-a]pyridin-2-yl)methyl)amino)pyrazin-2-yl)cyclopropane-1-carboxamide]
10 to 100	O=C(Nc1cc(N2CCC[C@@H]2c2cn3cc(C4CC4)ccc3n2)ncn1)[C@H]1C[C@@H]1c1cccc(Cl)c1 [Example I-251, (1S,2S)-2-(3-chlorophenyl)-N-(6-((R)-2-(6-cyclopropylimidazo[1,2-a]pyridin-2-yl)pyrrolidin-1-yl)pyrimidin-4-yl)cyclopropane-1-carboxamide]
1 to 10	N#Cc1ccc(Cl)cc1[C@H]1C[C@@H]1C(=O)Nc1cc(NCc2cn3cc(C4CC4)ccc3n2)ncn1 (racemic) [Example 48, rac-(1S*,2S*)-2-(5-chloro-2-cyanophenyl)-N-(6-(((6-cyclopropylimidazo[1,2-a]pyridin-2-yl)methyl)amino)pyrimidin-4-yl)cyclopropane-1-carboxamide]
10 to 100	CCOC(=O)CCOc1ccc(Cl)cc1[C@H]1C[C@@H]1C(=O)Nc1cc(NCc2cn3cc(C4CC4)ccc3n2)ncn1 (racemic) [Example 312, rac-ethyl 3-(4-chloro-2-((1S*,2S*)-2-((6-(((6-cyclopropylimidazo[1,2-a]pyridin-2-yl)methyl)amino)pyrimidin-4-yl)carbamoyl)cyclopropyl)phenoxy)propanoate]
100 to 1000	O=C(Nc1cc(NCc2cn3cc(C4CC4)ccc3n2)ccn1)[C@H]1C[C@@H]1c1cc(Cl)ncn1 (racemic) [Example I-210, rac-(1S*,2S*)-2-(6-chloropyrimidin-4-yl)-N-(4-(((6-cyclopropylimidazo[1,2-a]pyridin-2-yl)methyl)amino)pyridin-2-yl)cyclopropane-1-carboxamide]
100 to 1000	O=C(Nc1cc(N2C[C@@H](O)[C@@H](O)[C@@H]2c2cn3cc(C4CC4)ccc3n2)ncn1)[C@H]1C[C@@H]1c1cccc(Cl)c1 [Example 483, (1S,2S)-2-(3-chlorophenyl)-N-(6-((2S,3S,4R)-2-(6-cyclopropylimidazo[1,2-a]pyridin-2-yl)-3,4-dihydroxypyrrolidin-1-yl)pyrimidin-4-yl)cyclopropane-1-carboxamide]
< 1	Cc1ccnc(C2CC2C(=O)Nc2cc(OCc3cn4cc(C5CC5)cc(N5CC(=O)N(C)C5=O)c4n3)c(C(F)(F)F)nn2)n1 (centres unmarked) [Example 666, N-(5-((6-cyclopropyl-8-(3-methyl-2,4-dioxoimidazolidin-1-yl)imidazo[1,2-a]pyridin-2-yl)methoxy)-6-(trifluoromethyl)pyridazin-3-yl)-2-(4-methylpyrimidin-2-yl)cyclopropane-1-carboxamide]
10 to 100	O=C(Nc1cc(NCc2cn3cc(C4CC4)ccc3n2)ncn1)[C@H]1C[C@@H]1c1cc(Cl)ccc1C(F)F (racemic) [Example 51, rac-(1S*,2S*)-2-(5-chloro-2-(difluoromethyl)phenyl)-N-(6-(((6-cyclopropylimidazo[1,2-a]pyridin-2-yl)methyl)amino)pyrimidin-4-yl)cyclopropane-1-carboxamide]
< 1	Cc1ccnc([C@H]2C[C@@H]2C(=O)Nc2cc(N[C@H](C)c3cn4cc(C5CC5)cc(N5CC6(COC6)N(C)C5=O)c4n3)nc(C)n2)n1 [Example 435, (1S,2S)-N-(6-(((R)-1-(6-cyclopropyl-8-(5-methyl-6-oxo-2-oxa-5,7-diazaspiro[3.4]octan-7-yl)imidazo[1,2-a]pyridin-2-yl)ethyl)amino)-2-methylpyrimidin-4-yl)-2-(4-methylpyrimidin-2-yl)cyclopropane-1-carboxamide]
< 1	Cc1ccnc([C@H]2C[C@@H]2C(=O)Nc2nncc(N[C@H](C)c3cn4cc(C5CC5)cc(N5CC(=O)N(C)C5=O)c4n3)n2)n1 [Example 665, (1S,2S)—N-(5-(((R)-1-(6-cyclopropyl-8-(3-methyl-2,4-dioxoimidazolidin-1-yl)imidazo[1,2-a]pyridin-2-yl)ethyl)amino)-1,2,4-triazin-3-yl)-2-(4-methylpyrimidin-2-yl)cyclopropane-1-carboxamide]
100 to 1000	COc1ccc(Cl)cc1[C@H]1C[C@@H]1C(=O)Nc1cc(NCc2cn3cc(C4CC4)ccc3n2)ncn1 (racemic) [Example 47, rac-(1S*,2S*)-2-(5-chloro-2-methoxyphenyl)-N-(6-(((6-cyclopropylimidazo[1,2-a]pyridin-2-yl)methyl)amino)pyrimidin-4-yl)cyclopropane-1-carboxamide]
> 6000	CC(C)(C)OC(=O)Nc1cc(Cl)cc([C@H]2C[C@@H]2C(=O)Nc2cc(NCc3cn4cc(C5CC5)ccc4n3)ncn2)c1 (racemic) [Example I-189, rac-tert-butyl (3-chloro-5-((1S*,2S*)-2-((6-(((6-cyclopropylimidazo[1,2-a]pyridin-2-yl)methyl)amino)pyrimidin-4-yl)carbamoyl)cyclopropyl)phenyl)carbamate]
1000 to 6000	O=C(Nc1noc(NCc2cn3cc(C4CC4)ccc3n2)n1)[C@H]1C[C@@H]1c1cccc(Cl)c1 [Example 615, (1S,2S)-2-(3-chlorophenyl)-N-(5-(((6-cyclopropylimidazo[1,2-a]pyridin-2-yl)methyl)amino)-1,2,4-oxadiazol-3-yl)cyclopropane-1-carboxamide]
< 1	Cc1ccnc([C@H]2C[C@@H]2C(=O)Nc2cc(CCc3cn4cc(C5CC5)cc(N5CC(=O)N(C)C5=O)c4n3)cnn2)n1 [Example 667, (1S,2S)—N-(5-(2-(6-cyclopropyl-8-(3-methyl-2,4-dioxoimidazolidin-1-yl)imidazo[1,2-a]pyridin-2-yl)ethyl)pyridazin-3-yl)-2-(4-methylpyrimidin-2-yl)cyclopropane-1-carboxamide]
10 to 100	COc1ccc(C#N)c([C@H]2C[C@@H]2C(=O)Nc2cc(NCc3cn4cc(C5CC5)ccc4n3)ccn2)c1 (racemic) [Example I-206, rac-(1S*,2S*)-2-(2-cyano-5-methoxyphenyl)-N-(4-(((6-cyclopropylimidazo[1,2-a]pyridin-2-yl)methyl)amino)pyridin-2-yl)cyclopropane-1-carboxamide]
10 to 100	Cc1ccnc([C@H]2C[C@@H]2C(=O)Nc2cc(N3CC(C)(O)C[C@@H]3c3cn4cc(C5CC5)ccc4n3)ncn2)n1 (stereo partly drawn) [Example 426, (1S,2S)-N-(6-((2R)-2-(6-cyclopropylimidazo[1,2-a]pyridin-2-yl)-4-hydroxy-4-methylpyrrolidin-1-yl)pyrimidin-4-yl)-2-(4-methylpyrimidin-2-yl)cyclopropane-1-carboxamide]
10 to 100	O=C(Nc1cc(NCc2cn3cc(C4CC4)cc(OCc4ccccc4)c3n2)ncn1)[C@H]1C[C@@H]1c1cccc(Cl)c1 [Example I-148, (1S,2S)-N-(6-(((8-(benzyloxy)-6-cyclopropylimidazo[1,2-a]pyridin-2-yl)methyl)amino)pyrimidin-4-yl)-2-(3-chlorophenyl)cyclopropane-1-carboxamide]
10 to 100	CC(C)c1ccc2nc(CNc3cc(NC(=O)[C@H]4C[C@@H]4c4cccc(Cl)c4)ncn3)cn2c1 [Example I-160, (1S,2S)-2-(3-chlorophenyl)-N-(6-(((6-isopropylimidazo[1,2-a]pyridin-2-yl)methyl)amino)pyrimidin-4-yl)cyclopropane-1-carboxamide]
< 1	CC1CCC(=O)N1c1cc(C2CC2)cn2cc(CNc3ccnc(NC(=O)[C@H]4C[C@@H]4c4cccc(Cl)c4)c3)nc12 (mixture of isomers) [Example 89, (1S,2S)-2-(3-chlorophenyl)-N-(4-(((6-cyclopropyl-8-(2-methyl-5-oxopyrrolidin-1-yl)imidazo[1,2-a]pyridin-2-yl)methyl)amino)pyridin-2-yl)cyclopropane-1-carboxamide]
